Assay results published in ChEMBL document CHEMBL3046883, “Evaluation of insecticidal activity of diterpenes and lignans from Aristolochia malmeana against Anticarsia gemmatalis” (2008).
Activity calls are given as the source filed them. The calls are words filed in the database; no cut-off is given here.

Test system: Anticarsia gemmatalis
Test: Insecticidal activity against Anticarsia gemmatalis (velvetbean caterpillar) third-instar larvae exposed to compound through topical dosing at mesothorax region assessed as induction of larval mortality
Format: functional

Structure (SMILES) | LD10 [µg/µL] | LD50 | inhibition
COc1ccc(C[C@H]2COC(=O)[C@@H]2Cc2ccc3c(c2)OCO3)cc1OC [(-)-KUSUNOKININ] | 9.3 | 230.1 µg/µL | Dose-dependent effect
C=C1C=C(C)[C@]2(C)CC[C@@H](C)[C@](C)(CC/C(C)=C/C(=O)O)[C@H]2C1 |  | inactive | 
O=C1OC[C@H](Cc2ccc3c(c2)OCO3)[C@H]1Cc1ccc2c(c1)OCO2 |  | inactive | 
